Test results from patent publication US6949522B2, “β-2′- or 3′-halonucleosides” (Pharmasset, Inc., priority 2001, dated 2005).
pEC50: −log10 of the molar value. One block for each compound: values may come before it.

Tests used:
HIV-1xxBRU = settings: cited from earlier work
HIV-1M184V = settings: cited from earlier work
[1] = target: T1, adenosine deaminase (EC 3.5.4.4) (Bos taurus, UniProt P56658); assay: in vitro; settings: bovine, pH 7.4
T1 sequence (P56658 1-363): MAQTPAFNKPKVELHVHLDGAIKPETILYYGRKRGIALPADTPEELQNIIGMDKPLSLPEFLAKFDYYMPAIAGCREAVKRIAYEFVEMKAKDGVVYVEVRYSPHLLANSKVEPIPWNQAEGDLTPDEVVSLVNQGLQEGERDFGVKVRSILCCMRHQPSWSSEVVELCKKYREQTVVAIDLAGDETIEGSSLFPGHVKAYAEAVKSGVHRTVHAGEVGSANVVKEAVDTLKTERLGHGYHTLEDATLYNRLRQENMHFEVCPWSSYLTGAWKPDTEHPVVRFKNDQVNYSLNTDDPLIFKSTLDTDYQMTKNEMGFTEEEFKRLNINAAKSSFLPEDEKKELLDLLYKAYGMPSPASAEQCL
Description: Assays were performed at 25° C. in phosphate buffer solution (pH 7.4) with substrate concentrations in the range of 15-100 μM and with 0.15 unit of adenosine deaminase (EC.3.5.4.4. from calf intestinal mucosa). The assays were monitored with a UV spectrometer at 265 nm. Initially, the qualitative assays were performed with D-β-2′-F-4′-S-d4A 24 (200 μM) in the presence of 0.24 unit of adenosine deaminase for 120 minutes to determine whether it is a substrate of this enzyme. The concentration (ct) of each substrate at a certain time (t) was calculated from the absorbance (At) at that time (t), where it was assumed that the total change of absorbance (A0−A∞) was directly related to the disappearance of the substrate.^35 Initial hydrolysis rates for each substrate concentration were measured manually through graphical curve fitting of the concentration versus time data for reaction of each substrate. From Lineweaver-Burke plot of these initial rates, Vmax (maximum velocity) and KM (Michaelis constant) were obtained for each substrate and kcat was also calculated with 0.15 unit of the enzyme (M.W. 33,000) in 2 mL of buffer solution.

[2] = target: T2, adenosine deaminase (EC.3.5.4.4. from calf intestinal mucosa) (Bos taurus, UniProt P56658); parameters: adenosine deaminase (EC.3.5.4.4. from calf intestinal mucosa); from tissue; host or cells: calf intestinal mucosa; settings: literature value (ref. 28); cited from earlier work
T2 sequence (P56658 1-363): T1 sequence (P56658 1-363)

HBV = settings: read-out: inhibition of HBV EC50; cited from earlier work
[3] = human PBM cells, Ref. 11(b) Lee et al.

SMILES: Nc1nc(=O)n([C@@H]2O[C@H](CO)C=C2F)cc1F [β-D-2′-F-d4FC]
pEC50 (HIV-1xxBRU; EC50 instead of EC90 (footnote g), Ref. 23, read-out: Activity WT (xxBRU), anti-HIV activity in EC50): 5.51
EC90 (HIV-1xxBRU; [3]): 9.9 µM
pEC50 (HIV-1M184V; EC50 instead of EC90 (footnote g), Ref. 23, read-out: Activity M184V, anti-HIV activity in EC50): 5.02
FI, fold increase (EC90 HIV-1M184V/EC90 HIV-1xxBRU) (HIV-1M184V; Ref. 11(b) Lee et al.): 3.5
F1 (fold increase) in EC50 (HIV-1M184V; fold increase in EC50 (footnote g), Ref. 23): 3^g
EC90 (HIV-1M184V; [3]): 34.7 µM

half-life at 20 μM [1]: 30 s
SMILES: Nc1ncnc2c1ncn2[C@@H]1O[C@H](CO)[C@@H](O)[C@H]1O [Adenosine, reference compound]

SMILES: Nc1ncnc2c1ncn2[C@@H]1O[C@H](CO)C=C1F [D-2′-F-d4A]
Km [2]: 23 µM

SMILES: Nc1nc(=O)n([C@@H]2CS[C@H](CO)O2)cc1F [(−)-FTC, β-2′,3′-dideoxy-5-fluoro-3′-thiacytidine]
pEC50 (HBV): 6.62
